Molecules are shown by their SMILES.

One test concerns the target T1, human PPARγ2 (Homo sapiens, UniProt P37231).
T1 construct: the amino acids 182 to 505 of human PPARγ2; expressed in transfected cells; host or cells: COST cells (so in the source)
T1 sequence (P37231 182-505): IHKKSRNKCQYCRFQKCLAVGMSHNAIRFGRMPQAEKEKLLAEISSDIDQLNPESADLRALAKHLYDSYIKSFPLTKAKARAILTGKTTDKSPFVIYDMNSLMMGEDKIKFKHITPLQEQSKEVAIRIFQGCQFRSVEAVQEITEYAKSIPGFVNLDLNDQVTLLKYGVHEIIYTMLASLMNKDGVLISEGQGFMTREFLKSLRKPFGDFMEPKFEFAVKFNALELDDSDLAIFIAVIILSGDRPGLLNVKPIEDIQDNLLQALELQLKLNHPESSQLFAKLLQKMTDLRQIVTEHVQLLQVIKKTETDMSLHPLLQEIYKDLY
As to the kind of experiment: PPARγ activation activity, Gal4-PPARγ2 LBD chimera luciferase transfection assay in COST cells. The test is classed as cell-based. The following applies: Gal4 (aa 1-147)/human PPARγ2 LBD (aa 182-505) chimera, luciferase reporter, 16 hours, rosiglitazone (3 to 10 μmol/L) = 100%, read-out: EC50 (50% effective concentration, PPARγ activation). How it is done:
PPARγ Activation Activity
The agonistic activity of the compounds of the invention on PPARγ was measured based on the transfection assay using COST cells (DS Pharma Biomedical Co., Ltd., Osaka, Japan), which are the cell line derived from the kidney of the African green monkey. COST cells were cultured under 5% CO2 concentration, and DMEM medium containing 10% fetal bovine serum, glutamic acid, and antibiotics was used as a medium.
As an expression vector, a chimera in which DNA binding domain of Ga14, which is a yeast transcription factor, and ligand binding domain of human PPARγ2 are fused, i.e., a fused product between the amino acids 1 to 147 of Gal4 transcription factor and the amino acids 182 to 505 of human PPARγ2, was used. Furthermore, as a reporter vector, a firefly luciferase containing five copies of Gal4 recognition sequence in the promoter region was used. Plasmid transfection to the cells was performed according to a method which uses jetPEI (trade name, manufactured by Funakoshi Co., Ltd., Tokyo, Japan). Furthermore, β-galactosidase expression vector was employed as an internal standard.
After the transfection of the cells, the medium was replaced with a DMEM medium (containing 1% serum) added with the test compound, and the cells were further cultured for 16 hours. After that, the luciferase activity and β-galactosidase activity in the cell lysis solution were measured.
For the present test, dimethylsulfoxide (DMSO) was used for dissolution and dilution of the test compounds, and during the cell treatment, the DMSO concentration in DMEM medium (containing 1% serum) was adjusted to 0.1%. As a positive compound, rosiglitazone (trade name, manufactured by ALEXIS Corporation, Switzerland) was used. The percentage (%) of the luciferase activity of the each test compound (1 to 30 μmol/L) was calculated when the luciferase activity of rosiglitazone (3 to 10 μmol/L) is 100% and the luciferase activity in the absence of the test compound is 0%. The 50% effective concentration of the test compound (EC50, 50% effect concentration) was calculated by using SAS Preclinical Package Ver 5.0 (trade name, manufactured by SAS institute Japan Co., Tokyo, Japan), which is a statistical analysis program.
Background: A reporter such as luciferase makes a cellular process visible.

Test [1] has as its target T2, angiotensin II type 1 receptor (Oryctolagus cuniculus, UniProt P34976).
T2 construct: By using a specimen of isolated rabbit blood vessels; from tissue; host or cells: rabbit thoracic aorta ring (New Zealand White, male)
T2 sequence (P34976 1-359): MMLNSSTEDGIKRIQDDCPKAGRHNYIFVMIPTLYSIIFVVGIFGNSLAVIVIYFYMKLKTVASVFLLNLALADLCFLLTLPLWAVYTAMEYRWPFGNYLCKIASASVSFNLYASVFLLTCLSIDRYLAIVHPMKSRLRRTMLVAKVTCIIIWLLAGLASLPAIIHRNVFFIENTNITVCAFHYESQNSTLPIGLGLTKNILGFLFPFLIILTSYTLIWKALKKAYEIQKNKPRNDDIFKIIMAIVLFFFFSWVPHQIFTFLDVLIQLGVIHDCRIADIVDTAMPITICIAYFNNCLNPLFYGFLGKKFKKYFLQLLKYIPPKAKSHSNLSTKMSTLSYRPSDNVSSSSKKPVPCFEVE
Briefly: Angiotensin II antagonistic activity in isolated rabbit blood vessels (angiotensin II-induced contraction of thoracic aorta ring). The conditions noted are these: angiotensin II (10 nM)-induced contraction, compound 1 nmol/L to 10 μmol/L, 37° C., read-out: IC50 (50% inhibition concentration of angiotensin II-induced contraction). An excerpt:
Angiotensin II Antagonistic Activity in Isolated Rabbit Blood Vessels
By using a specimen of isolated rabbit blood vessels, antagonistic activity of the compounds of the invention against angiotensin II type 1 receptor was estimated from a dose-response curve of angiotensin II-induced blood vessel contraction. Specifically, the specimen of thoracic aorta ring of a rabbit (New Zealand White: male, 2.4 to 3.0 kg) was suspended in a magnus bath filled with Krebs-Henseleite buffer (composition: 118 mM NaCl, 4.7 mM KCl, 2.55 mM CaCl2, 1.18 mM MgSO4, 1.18 mM KH2PO4, 24.88 mM NaHCO3, and 11.1 mM D-glucose), and angiotensin II (10 nM)-induced contraction was obtained in the presence of the compounds of each example (1 nmol/L to 10 μmol/L). During the measurement, the inside temperature of the magnus bath was maintained at 37° C. and the bath was continuously ventilated with a sufficient amount of mixed gas (95% O2 and 5% CO2). The angiotensin II-induced contraction was converted into a relative value (%) that is based on the angiotensin II (10 nM)—induced contraction in the absence of the compounds of each example. From the concentration-response curve obtained therefrom, 50% inhibition concentration (IC50 value) was calculated by using SAS Preclinical Package Ver 5.0 (trade name, manufactured by SAS institute Japan Co., Tokyo, Japan), which is a statistical analysis program.

`CCCCc1nc(C)nc(OCC(C)=O)c1Cc1ccc(-c2ccccc2-c2noc(=O)[nH]2)cc1` [Example 22, 3-{4′-{[4-butyl-2-methyl-6-(2-oxopropoxy)pyrimidin-5-yl]methyl}-[1,1′-biphenyl]-2-yl}-1,2,4-oxadiazol-5(4H)-one]: the EC50 at human PPARγ2 worked out at 950 nM. The IC50 in test [1] is 100 nM.
With `CCCCc1nc(C)nc(OCCCC(=O)OCC)c1Cc1ccc(-c2ccccc2-c2noc(=O)[nH]2)cc1` [Example 6, ethyl 4-{{6-butyl-2-methyl-5-{[2′-(5-oxo-4,5-dihydro-1,2,4-oxadiazol-3-yl)-[1,1′-biphenyl]-4-yl]methyl}pyrimidin-4-yl}oxy}butanoate], on human PPARγ2, the EC50 is 870 nM. For the same compound, in test [1], the IC50 is 130 nM.
The like results for `CCCCc1nc(C)nc(OCCO)c1Cc1ccc(-c2ccccc2-c2noc(=O)[nH]2)cc1` [Example 15, 3-{4′-{[4-butyl-6-(2-hydroxyethoxy)-2-methylpyrimidin-5-yl]methyl}-[1,1′-biphenyl]-2-yl}-1,2,4-oxadiazol-5(4H)-one] were, in that order, 1320 nM and 770 nM.
With `CCCCc1nc(C)nc(OCC(=O)N(CC)CC)c1Cc1ccc(-c2ccccc2-c2noc(=O)[nH]2)cc1` [Example 5, 2-{{6-butyl-2-methyl-5-{[2′-(5-oxo-4,5-dihydro-1,2,4-oxadiazol-3-yl)-[1,1′-biphenyl]-4-yl]methyl}pyrimidin-4-yl}oxy}-N,N-diethylacetamide], the IC50 in test [1] amounted to 60 nM.
Same read-out and setting: under `CCCCc1nc(C)nc(OC(Cc2ccccc2)C(=O)O)c1Cc1ccc(-c2ccccc2-c2noc(=O)[nH]2)cc1` (stereo not drawn) [Example 28, 2-{{6-butyl-2-methyl-5-{[2′-(5-oxo-4,5-dihydro-1,2,4-oxadiazol-3-yl)-[1,1′-biphenyl]-4-yl]methyl}pyrimidin-4-yl}oxy}-3-phenylpropionic acid] stands 640 nM; under `CCCCc1nc(C)nc(OCC(=O)O)c1Cc1ccc(-c2ccccc2-c2noc(=O)[nH]2)cc1` [Example 2, 2-{{6-butyl-2-methyl-5-{[2′-(5-oxo-4,5-dihydro-1,2,4-oxadiazol-3-yl)-[1,1′-biphenyl]-4-yl]methyl}pyrimidin-4-yl}oxy}acetic acid], 230 nM.
Take `CCCCc1nc(C)nc(OCCOC)c1Cc1ccc(-c2ccccc2-c2noc(=O)[nH]2)cc1` [Example 33, 3-{4′-{[4-butyl-6-(2-methoxyethoxy)-2-methylpyrimidin-5-yl]methyl}-[1,1′-biphenyl]-2-yl}-1,2,4-oxadiazol-5(4H)-one]: at human PPARγ2, the EC50 was found to be 920 nM. For the same compound, the IC50 in test [1] was 480 nM.
On the same counts, the results for `CCCCc1nc(C)nc(OCC(=O)N2CCCCC2)c1Cc1ccc(-c2ccccc2-c2noc(=O)[nH]2)cc1` [Example 30] are 1210 nM and 230 nM.
As to `CCCCc1nc(C)nc(OC(C(=O)O)c2ccccc2)c1Cc1ccc(-c2ccccc2-c2noc(=O)[nH]2)cc1` (stereo not drawn) [Example 26, 2-{{6-butyl-2-methyl-5-{[2′-(5-oxo-4,5-dihydro-1,2,4-oxadiazol-3-yl)-[1,1-biphenyl]-4-yl]methyl}pyrimidin-4-yl}oxy}-2-phenylacetic acid], on human PPARγ2, the EC50 stood at 2920 nM. For the same compound, the IC50 in test [1] turned out to be 380 nM.
With `CCCCc1nc(C)nc(OCC(=O)NCC)c1Cc1ccc(-c2ccccc2-c2noc(=O)[nH]2)cc1` [Example 4, 2-{{6-butyl-2-methyl-5-{[2′-(5-oxo-4,5-dihydro-1,2,4-oxadiazol-3-yl)-[1,1′-biphenyl]-4-yl]methyl}pyrimidin-4-yl}oxy}-N-ethylacetamide], the IC50 in test [1] stood at 290 nM.
In the case of `CCCCc1nc(C)nc(OCC(=O)OCC)c1Cc1ccc(-c2ccccc2-c2noc(=O)[nH]2)cc1` [Example 1, ethyl 2-{{6-butyl-2-methyl-5-{[2′-(5-oxo-4,5-dihydro-1,2,4-oxadiazol-3-yl)-[1,1′-biphenyl]-4-yl]methyl}pyrimidin-4-yl}oxy}acetate], the EC50 on human PPARγ2 is 1050 nM. Further, in test [1], the IC50 came out at 810 nM.

The record behind these values is patent US20120322819A1, “COMPOUND CONTAINING A NOVEL 4-ALKOXYPYRIMIDINE STRUCTURE AND MEDICINE CONTAINING SAME” (KOWA COMPANY, LTD., priority 2010, published 2012).
